Consider 9 molecules from ChEMBL document CHEMBL1154194, “Glucose-containing flavones--their synthesis and antioxidant and neuroprotective activities” (Bioorg Med Chem Lett, 2009).

The test system of experiment [1] is Radical scavenging activity. In words: Antioxidant activity assessed as DPPH radical scavenging activity after 30 mins. Type of experiment: functional. A general note: DPPH is a stable violet radical that fades when it is reduced.
Experiment [2] can be described thus: Antioxidant activity assessed as inhibition of xanthine/xanthine oxidase system-induced superoxide anion radical scavenging activity after 20 mins. Type of experiment: functional.
The test system of a further experiment is Liver. In words: Antioxidant activity in rat liver homogenate assessed as inhibition of iron-ascorbic acid mix-induced lipid peroxidation by TBARS assay. The class given is functional, tissue-based.
A short description of experiment [3]: (§1) Neuroprotective activity against H2O2-induced neuronal damage in Sprague-Dawley rat cerebral cortical cells after 20 to 24 hrs by MTT assay. Type of experiment: functional. A general note: Tetrazolium assays rely on reduction of a dye to a coloured formazan, in cell work by metabolically active cells.
For a further experiment, the species on record is Rattus norvegicus. Described as §1. The class given is functional.

A value given as a limit tells only on which side of the number the result lay.

For orientation: IC50 means the concentration that gives 50% inhibition. For `O=c1cc(-c2ccc(O)c(O)c2)oc2cc(O)cc(O)c12` [LUTEOLIN], the IC50 in experiment [1] was 16.2 µM; in experiment [2] it was 8.66 µM; in the experiment on Liver, 24.7 µM; in experiment [3] it was 3.75 µM.
As to `COc1c(-c2ccc(O)c(O)c2)oc2cc(O)cc(O)c2c1=O` [3-O-METHYLQUERCETIN], the IC50 in experiment [1] was 14.2 µM; in experiment [2], 17.4 µM; in the experiment on Liver it was 19 µM; in experiment [3], 3.5 µM.
Take `O=C1O[C@H]([C@@H](O)CO)C(O)=C1O` [ASCORBIC ACID]: the results for the IC50 (in experiment [1]; in experiment [2]; in the experiment with Liver) were 41 µM, above 300 µM and above 300 µM, respectively.
In the case of `O=c1cc(-c2ccc(O)c(O)c2)oc2cc(OC3O[C@@H](CO)[C@H](O)[C@@H](O)[C@@H]3O)cc(O)c12` (stereo partly specified), the IC50 was 17.3 µM in experiment [1], 3.28 µM in experiment [2], 40.4 µM in the experiment on Liver and 7.33 µM in experiment [3]. The Activity entry in the experiment filed under Rattus norvegicus is “Dose-dependent effect”.
On the same counts, the results for `COc1c(-c2ccc(O)c(O)c2)oc2cc(OCC(=O)OC[C@@H]3OC(O)[C@@H](O)[C@H](O)[C@H]3O)cc(O)c2c1=O` (stereo partly specified) are 19.7 µM, 32.9 µM, 66.7 µM, 5.34 µM and “Dose-dependent effect”.
On the same counts, the results for `COc1c(-c2ccc(O)c(O)c2)oc2cc(OC3O[C@@H](CO)[C@H](O)[C@@H](O)[C@@H]3O)cc(O)c2c1=O` (stereo partly specified) are 16.9 µM, 10.2 µM, 43.2 µM, 30.7 µM and “Dose-dependent effect”.
On the same counts, the results for `O=C(COc1cc(O)c2c(=O)cc(-c3ccc(O)c(O)c3)oc2c1)OC[C@@H]1OC(O)[C@@H](O)[C@H](O)[C@H]1O` (stereo partly specified) are 16.7 µM, 6.22 µM, 47.9 µM, 12.7 µM and “Dose-dependent effect”.
With `O=c1cc(-c2ccc(O)c(O)c2)oc2cc(OCCOC[C@@H]3OC(O)[C@@H](O)[C@H](O)[C@H]3O)cc(O)c12` (stereo partly specified), the IC50 stood at 18.5 µM in experiment [1], 3.53 µM in experiment [2], 47.8 µM with Liver and 15.7 µM in experiment [3]. For the same molecule, the Activity result in the experiment listed under Rattus norvegicus is “Dose-dependent effect”.
On the same counts, the results for `COc1c(-c2ccc(O)c(O)c2)oc2cc(OCCOC[C@@H]3OC(O)[C@@H](O)[C@H](O)[C@H]3O)cc(O)c2c1=O` (stereo partly specified) are 15.6 µM, 12.8 µM, 78 µM, 58.4 µM and “Dose-dependent effect”.
